ChEMBL document CHEMBL3045802, “Synthesis and in vitro antitumor activity of new quinoline, pyrimido[4,5-b]quinoline, [1,2,3]triazino[4,5-b]quinoline, and [1,2,4]triazolo[2,3:3,4]pyrimido[6,5-b]quinoline analogs” (2013)

Tests used:
Type in all cases: functional
SF-539 = test: Cytotoxicity against Homo sapiens (human) SF539 cells assessed as growth inhibition at 10 uM after 48 hr by coulter counter analysis; conditions: SF-539, 48 h, read-out: GI
HOP-92 = test: Cytotoxicity against Homo sapiens (human) HOP92 cells assessed as growth inhibition at 10 uM after 48 hr by coulter counter analysis; conditions: HOP-92, 48 h, read-out: GI
SNB-19 = test: Cytotoxicity against Homo sapiens (human) SNB19 cells assessed as growth inhibition at 10 uM after 48 hr by coulter counter analysis; conditions: SNB-19, 48 h, read-out: GI
HOP-62 = test: Cytotoxicity against Homo sapiens (human) HOP62 cells assessed as growth inhibition at 10 uM after 48 hr by coulter counter analysis; conditions: HOP-62, 48 h, read-out: GI
PC-3 = test: Cytotoxicity against Homo sapiens (human) PC3 cells assessed as growth inhibition at 10 uM after 48 hr by coulter counter analysis; conditions: PC-3, 48 h, read-out: GI
Malme-3M = test: Cytotoxicity against Homo sapiens (human) MALME-3M cells assessed as growth inhibition at 10 uM after 48 hr by coulter counter analysis; conditions: read-out: GI
M14 = test: Cytotoxicity against Homo sapiens (human) M14 cells assessed as growth inhibition at 10 uM after 48 hr by coulter counter analysis; conditions: M14, 48 h, read-out: GI
UACC-62 = test: Cytotoxicity against Homo sapiens (human) UACC62 cells assessed as growth inhibition at 10 uM after 48 hr by coulter counter analysis; conditions: UACC-62, 48 h, read-out: GI
OVCAR-8 = test: Cytotoxicity against Homo sapiens (human) OVCAR8 cells assessed as growth inhibition at 10 uM after 48 hr by coulter counter analysis; conditions: OVCAR-8, 48 h, read-out: GI
NCI-H226 = test: Cytotoxicity against Homo sapiens (human) NCI-H226 cells assessed as growth inhibition at 10 uM after 48 hr by coulter counter analysis; conditions: NCI-H226, 48 h, read-out: GI
NCI-H23 = test: Cytotoxicity against Homo sapiens (human) NCI-H23 cells assessed as growth inhibition at 10 uM after 48 hr by coulter counter analysis; conditions: NCI-H23, 48 h, read-out: GI
HCC 2998 = test: Cytotoxicity against Homo sapiens (human) HCC2998 cells assessed as growth inhibition at 10 uM after 48 hr by coulter counter analysis; conditions: HCC 2998, 48 h, read-out: GI
HL-60(TB) = test: Cytotoxicity against Homo sapiens (human) HL-60(TB) cells assessed as growth inhibition at 10 uM after 48 hr by coulter counter analysis; conditions: HL-60, 48 h, read-out: GI
RXF 393 = test: Cytotoxicity against Homo sapiens (human) RXF393 cells assessed as growth inhibition at 10 uM after 48 hr by coulter counter analysis; conditions: RXF 393, 48 h, read-out: GI
RPMI-8226 = test: Cytotoxicity against Homo sapiens (human) RPMI8226 cells assessed as growth inhibition at 10 uM after 48 hr by coulter counter analysis; conditions: RPMI-8226, 48 h, read-out: GI
IGROV-1 = test: Cytotoxicity against Homo sapiens (human) IGROV1 cells assessed as growth inhibition at 10 uM after 48 hr by coulter counter analysis; conditions: IGROV-1, 48 h, read-out: GI
T47D = test: Cytotoxicity against Homo sapiens (human) T47D cells assessed as growth inhibition at 10 uM after 48 hr by coulter counter analysis; conditions: read-out: GI
DU-145 = test: Cytotoxicity against Homo sapiens (human) DU145 cells assessed as growth inhibition at 10 uM after 48 hr by coulter counter analysis; conditions: DU-145, 48 h, read-out: GI
OVCAR-4 = test: Cytotoxicity against Homo sapiens (human) OVCAR4 cells assessed as growth inhibition at 10 uM after 48 hr by coulter counter analysis; conditions: OVCAR-4, 48 h, read-out: GI
Hs-578T = test: Cytotoxicity against Homo sapiens (human) Hs578T cells assessed as growth inhibition at 10 uM after 48 hr by coulter counter analysis; conditions: read-out: GI
HCT-15 = test: Cytotoxicity against Homo sapiens (human) HCT15 cells assessed as growth inhibition at 10 uM after 48 hr by coulter counter analysis; conditions: HCT-15, 48 h, read-out: GI
A549 = test: Cytotoxicity against Homo sapiens (human) A549 cells assessed as growth inhibition at 10 uM after 48 hr by coulter counter analysis; conditions: A549, 48 h, read-out: GI
SK-MEL-2 = test: Cytotoxicity against Homo sapiens (human) SK-MEL-2 cells assessed as growth inhibition at 10 uM after 48 hr by coulter counter analysis; conditions: SK-MEL-2, 48 h, read-out: GI
MDA-MB-435 = test: Cytotoxicity against Homo sapiens (human) MDA-MB-435 cells assessed as growth inhibition at 10 uM after 48 hr by coulter counter analysis; conditions: MDA-MB-435, 48 h, read-out: GI

Structure (SMILES) | inhibition of growth at 10 µM (SF-539) [%] | inhibition of growth at 10 µM (HOP-92) [%] | inhibition of growth at 10 µM (SNB-19) [%] | inhibition of growth at 10 µM (HOP-62) [%] | inhibition of growth at 10 µM (PC-3) [%] | inhibition of growth at 10 µM (Malme-3M) [%] | inhibition of growth at 10 µM (M14) [%] | inhibition of growth at 10 µM (UACC-62) [%] | inhibition of growth at 10 µM (OVCAR-8) [%] | inhibition of growth at 10 µM (NCI-H226) [%] | inhibition of growth at 10 µM (NCI-H23) [%] | inhibition of growth at 10 µM (HCC 2998) [%] | inhibition of growth at 10 µM (HL-60(TB)) [%] | inhibition of growth at 10 µM (RXF 393) [%] | inhibition of growth at 10 µM (RPMI-8226) [%] | inhibition of growth at 10 µM (IGROV-1) [%] | inhibition of growth at 10 µM (T47D) [%] | inhibition of growth at 10 µM (DU-145) [%] | inhibition of growth at 10 µM (OVCAR-4) [%] | inhibition of growth at 10 µM (Hs-578T) [%] | also measured
COc1ccc(C2C3=C(CCCC3)Nc3nn[nH]c(=O)c32)cc1OC (stereo not drawn) | < 10 | 13.3 | 10.7 | 15.7 | 13.4 | < 10 | < 10 | 14.3 | < 10 | 15.9 | < 10 | < 10 | < 10 | 14.4 | < 10 | < 10 | 21.1 | < 10 | < 10 | < 10 | inhibition of growth at 10 µM (HCT-15): < 10%; inhibition of growth at 10 µM (A549): < 10%; inhibition of growth at 10 µM (SK-MEL-2): < 10%; inhibition of growth at 10 µM (MDA-MB-435): < 10%
COc1ccc(C2C3=C(CCCC3)Nc3[nH]c(=S)nc(NC(N)=S)c32)cc1OC (stereo not drawn) | 21.1 | 25.8 | 10.4 | 25.4 | 23.5 | 10.9 | < 10 | < 10 | < 10 | 18.6 | 15.3 | < 10 | < 10 | 14.3 | < 10 | < 10 | 27.5 | < 10 | < 10 | 17.7 | inhibition of growth at 10 µM (HCT-15): 10.2%; inhibition of growth at 10 µM (A549): < 10%; inhibition of growth at 10 µM (SK-MEL-2): 12.6%; inhibition of growth at 10 µM (MDA-MB-435): 70.7%
COc1ccc(C2C3=C(CCCC3)Nc3nc(CC#N)[nH]c(=O)c32)cc1OC (stereo not drawn) | < 10 | < 10 | < 10 | < 10 | < 10 | < 10 | < 10 | < 10 | < 10 | 11.3 | < 10 | < 10 | < 10 | < 10 | < 10 | < 10 | < 10 | < 10 | < 10 | < 10 | inhibition of growth at 10 µM (HCT-15): < 10%; inhibition of growth at 10 µM (A549): < 10%; inhibition of growth at 10 µM (SK-MEL-2): < 10%; inhibition of growth at 10 µM (MDA-MB-435): < 10%
O=c1[nH]c(-c2ccccc2)nc2c1C(c1ccc(Cl)cc1)C1=C(CCCC1)N2 (stereo not drawn) | < 10 | 12 | < 10 | < 10 | < 10 | < 10 | < 10 | < 10 | < 10 | 12.3 | < 10 | < 10 | < 10 | < 10 | < 10 | < 10 | 15.5 | < 10 | < 10 | < 10 | inhibition of growth at 10 µM (HCT-15): < 10%; inhibition of growth at 10 µM (A549): < 10%; inhibition of growth at 10 µM (SK-MEL-2): < 10%; inhibition of growth at 10 µM (MDA-MB-435): < 10%
COc1ccc(C2C3=C(CCCC3)Nc3nc(-c4ccccc4)[nH]c(=O)c32)cc1OC (stereo not drawn) | < 10 | 13.3 | 10.7 | 15.7 | 13.5 | < 10 | < 10 | 14.4 | < 10 | 15.9 | < 10 | < 10 | < 10 | 14.4 | < 10 | < 10 | 21.1 | < 10 | < 10 | < 10 | inhibition of growth at 10 µM (HCT-15): < 10%; inhibition of growth at 10 µM (A549): < 10%; inhibition of growth at 10 µM (SK-MEL-2): < 10%; inhibition of growth at 10 µM (MDA-MB-435): < 10%
COc1ccc(-c2nc3c(c(=O)[nH]2)C(c2ccc(OC)c(OC)c2)C2=C(CCCC2)N3)cc1OC (stereo not drawn) | 14.5 | 26.3 | < 10 | 12.3 | 17.1 | < 10 | < 10 | < 10 | 12.1 | 13.3 | < 10 | < 10 | < 10 | 10.3 | 10.8 | < 10 | 28.3 | < 10 | 10.8 | < 10 | inhibition of growth at 10 µM (HCT-15): 10.7%; inhibition of growth at 10 µM (A549): < 10%; inhibition of growth at 10 µM (SK-MEL-2): < 10%; inhibition of growth at 10 µM (MDA-MB-435): < 10%
Clc1ccc(C2C3=C(CCCC3)Nc3ncn4nc(-c5ccccc5)nc4c32)cc1 (stereo not drawn) | < 10 | 14 | < 10 | 16 | 19.7 | < 10 | < 10 | 13.4 | < 10 | 15.2 | 11.7 | < 10 | < 10 | < 10 | 12.3 | < 10 | 14.7 | < 10 | < 10 | < 10 | inhibition of growth at 10 µM (HCT-15): 10.2%; inhibition of growth at 10 µM (A549): < 10%; inhibition of growth at 10 µM (SK-MEL-2): < 10%; inhibition of growth at 10 µM (MDA-MB-435): < 10%
